Experimental data: publication PMC11143257, “Atomistic mechanism of coupling between cytosolic sensor domain and selectivity filter in TREK K2P channels” (Nature Communications, 2024)
Changes are numbered by the printed parent chain. Blank lines part the entries; values can stand above or below the molecule they belong to.

Assays:
[1] = system: WT hTREK-2; experiment: Direct application of PKC inhibitor, oocytes; assay type: cell-based, human; conditions: oocytes expressing WT hTREK-2
Description: This study by Türkaydin and colleagues combines functional studies of TREK channels with MD simulations and proposes an explanation for the molecular mechanism of phosphorylation-mediated regulation of channel activity, and a general framework for how down-to-up transitions of TM4 is coupled to activation of the SF gate. Using elegant MTS-modification, phospho-mimetic mutagenesis, and norfluoxetine sensitivity experiment - and […]
TM4 increases channel opening which is a plausible explanation for the inverse inhibitory effect of phosphorylation of the extended M4 helix.
The molecular dynamics approaches are mostly outside of my expertise and so I cannot comment on the technical elements. However, the interaction network analysis supports previous models that upwards movement of TM4 is associated with opening of the SF gate and highlights previously identified and potential novel residues responsible. […]
results provide interesting advances which improve our understanding of TREK channel […]
We thank the reviewer for the positive evaluation of our work and the many helpful comments to improve the manuscript. The reviewer specific comments are addressed below:
- and this is an excellent opportunity to clarify some important outstanding questions in the […]
state. This is an interesting and important finding, which would help to explain TREK channel regulation in vivo. […]

[2] = system: hTREK-1; experiment: Direct application of PKC inhibitor, HEK293 whole-cell; assay type: cell-based, human; conditions: 1.0 µM; HEK293 cells, whole-cell configuration; within 30 min; n = 6
Method: Further, we also tested the direct application of 1.0 µM of the PKC inhibitor BIM I to HEK293 cells (in whole-cell configuration) expressing hTREK-1. Similarly, under these conditions, TREK-1 channel currents were not altered within 30 min. (n = 6). Thus, it appears that under […]
of the PKC site. Unfortunately, it is not known which phosphatase mediates the dephosphorylation of the PKC site in TREK channels nor are pharmacological phosphatase activators known that could be used promote the dephosphorylation.
The interaction network analysis provides possible explanations for how TM4 movement is transduced to SF gate opening. As mentioned, this analysis highlights a number of residues […]
W326, R237 in Dong et al., 2015). The authors are well placed to determine whether mutation of these residues, in silico, destabilizes the down-state and to show how this might promote stabilization of the conductive SF. […]
through interaction network analysis and previous mutation studies, can aid in studying the conformational change from down- to up-state in the channel and how this is related to the conformational change in the SF. However, the timescale for the conformational movement in […]
2 channels. In only 3 out of 7 simulations, each lasting 3 μs, did we observe a complete transition from up to down. […]
well-suited for assessing the impact of mutations. […]

[3] = target: T1, TREK-2* (Homo sapiens, UniProt P57789); experiment: Activation of truncated construct; assay type: cell-based; set-up: was truncated from WT and includes amino acids 67 - 355; expressed in transfected cells; host or cells: Xenopus laevis oocytes (cRNA injection, pFAW vector); conditions: comparable to WT, peer review file
T1 sequence (P57789 67-355 isoform P57789-4): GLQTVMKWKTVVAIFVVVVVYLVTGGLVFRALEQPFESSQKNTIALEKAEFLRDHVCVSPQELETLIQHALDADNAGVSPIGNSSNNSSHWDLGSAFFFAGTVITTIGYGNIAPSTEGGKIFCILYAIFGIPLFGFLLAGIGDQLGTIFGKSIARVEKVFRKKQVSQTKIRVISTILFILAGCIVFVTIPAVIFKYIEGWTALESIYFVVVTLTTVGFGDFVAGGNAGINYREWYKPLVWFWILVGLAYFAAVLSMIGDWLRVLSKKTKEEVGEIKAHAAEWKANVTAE
Description: page 27: Answer: We agree with the reviewer that applying statistical tests to our simulation data would enhance the confidence in interpreting some of the results. However, in this study, due to the relatively large size of the systems that require extensive simulation time, we were limited to conducting only five to seven independent simulation runs for each setup. According to the checklist and recommendations provided by Nature Journal (PMID: 36918708), a minimum of three simulations per condition is advisable. Given that we only have data from these limited simulation runs, conducting a p-test is challenging. Nonetheless, as we noted in the main text, in all 5 simulations of the down-state, we observed a robust conformational change at the S1 binding site. Conversely, in all five up-state simulations, the SF remained a conductive conformation. […] Minor comments: Are there any differences in function between full-length TREK-2 and the TREK-2* construct? […] 22

[4] = target: T2, TREK-1 F325C (Homo sapiens, UniProt O95069, F325C); experiment: MTS probe modification, inside-out patch-clamp; assay type: cell-based; conditions: MTS-ET+ 1 mM, symmetrical K+, -80 mV (Supplementary Fig. 2d)
T2 construct: expressed in transfected cells; host or cells: Xenopus laevis oocytes (cRNA injection), excised inside-out patches
T2 sequence (O95069 1-426 F325C): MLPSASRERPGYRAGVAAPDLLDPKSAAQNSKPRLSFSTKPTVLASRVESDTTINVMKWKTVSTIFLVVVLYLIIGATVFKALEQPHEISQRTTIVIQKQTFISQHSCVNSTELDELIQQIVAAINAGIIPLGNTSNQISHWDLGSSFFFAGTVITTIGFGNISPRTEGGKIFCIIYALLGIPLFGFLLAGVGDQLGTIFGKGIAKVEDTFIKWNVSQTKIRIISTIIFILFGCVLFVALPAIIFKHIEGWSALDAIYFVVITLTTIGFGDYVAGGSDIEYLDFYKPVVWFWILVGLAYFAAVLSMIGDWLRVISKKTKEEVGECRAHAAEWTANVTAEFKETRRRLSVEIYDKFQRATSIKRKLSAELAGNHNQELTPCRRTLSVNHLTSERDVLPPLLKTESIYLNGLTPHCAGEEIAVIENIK
Method: (§1) First, we measured WT TREK-1, WT TRAAK and TREK-2^* channels without modifiable cysteine residues as references. […] Note, that patch integrity and channel regulation were tested with either 1 mM tetra-pentyl-ammonium (TPenA) and a short pHi activation step. Next, we conducted systematic cysteine scanning mutagenesis of the entire pCt and examined the effect of charged and aliphatic MTS probes.
(§2) Xenopus laevis oocytes were surgically removed from anesthetized adult females, treated with type II collagenase (Sigma-Aldrich/Merck, Germany) and manually defolliculated. A solution containing the K^+ channel-specific cRNA at a desired concentration was injected into Dumont stage V - VI oocytes and subsequently incubated at 17 °C in a solution containing (mM): 54 NaCl, […], 2.4 NaHCO3, 0.82 MgSO4 x 7 H2O, 0.41 CaCl2, 0.33 Ca(NO3)2 x 4 H2O and 7.5 TRIS (pH 7.4 adjusted with NaOH/HCl) for 1 - 7 days before use. Patch-clamp recordings in an inside-out configuration under voltage-clamp conditions were performed at room temperature (22 - 24 °C). Patch pipettes were made from thick-walled borosilicate glass GB 200TF-8P (Science Products, Germany), had resistances of 0.2 - 0.5 MΩ (tip diameter of 10 - 25 µm) and filled with a pipette solution (in mM): 120 KCl, 10 HEPES and 3.6 CaCl2 (pH 7.4 adjusted with KOH/HCl). Intracellular bath solutions and compounds were applied to the cytoplasmic side of excised patches for the various K^+ channels via a gravity flow multi-barrel pipette system. The intracellular solution had the following composition (in mM): 120 KCl, 10 HEPES, 2 EGTA, and 1 Pyrophosphate (pH adjusted with KOH/HCl). Currents were recorded with an EPC10 amplifier (HEKA electronics, Germany) and sampled at 10 kHz or higher and filtered with 3 kHz (-3 dB) or higher as appropriate for the sampling rate.
(§3) Tetra-pentyl-ammonium chloride (TPenA) was purchased from Merck (Sigma-Aldrich), prepared as 100 mM stocks in intracellular recording solution, stored at −20 °C and diluted to a final concentration in intracellular recording solution before measurements. Decyl-MethaneThioSulfonate (Decyl-MTS), (2-(trimethylammonium)ethyl)MethaneThioSulfonate bromide (MTS-ET^+) and Sodium (2-sulfonatoethyl)MethaneThioSulfonate (MTS-ES^-) were purchased from Toronto Research Chemicals. MTS-ET^+ was directly dissolved to the desired concentration of 1 mM in the intracellular recording solution before each experiment. MTS-ET^+ was used immediately after dilution for maximally 5 min. Decyl-MTS and […] were prepared as 10 - 100 mM stocks in DMSO and diluted to the desired concentration before the measurements.
(§4) The fold current increase (fold activation) of a ligand (decyl-MTS) was calculated from the following equation:1 FoldactivationFA=Iactivated/Ibasal with Iactivated represents the stable current level in the presence of 100 µM decyl-MTS and Ibasal the measured current before application of the MTS probe.

[5] = target: T3, TREK-1 T318C (Homo sapiens, UniProt O95069, T318C); experiment: MTS probe modification, inside-out patch-clamp; assay type: cell-based; conditions: MTS-ET+ 1 mM, symmetrical K+, -80 mV (Supplementary Fig. 2d)
T3 construct: expressed in transfected cells; host or cells: Xenopus laevis oocytes (cRNA injection), excised inside-out patches
T3 sequence (O95069 1-426 T318C): T2 sequence (O95069 1-426 F325C) with T318C, C325F
Method: as §1, §2, §3, §4

[6] = target: T4, TREK-1 V322C (Homo sapiens, UniProt O95069, V322C); experiment: MTS probe modification, inside-out patch-clamp; assay type: cell-based; conditions: MTS-ET+ 1 mM, symmetrical K+, -80 mV (Supplementary Fig. 2d)
T4 construct: expressed in transfected cells; host or cells: Xenopus laevis oocytes (cRNA injection), excised inside-out patches
T4 sequence (O95069 1-426 V322C): T2 sequence (O95069 1-426 F325C) with V322C, C325F
Method: as §1, §2, §3, §4

Molecule: CN(C)CCCn1cc(C2=C(c3c[nH]c4ccccc34)C(=O)NC2=O)c2ccccc21 [BIM I, Bisindolylmaleimide I]
effect on current [1]: did not observe a current increase
effect on TREK-1 channel currents [2]: not altered

activation [3]: activated
Molecule: CCCCC/C=C\C/C=C\C/C=C\C/C=C\CCCC(=O)O [arachidonic acid]

Molecule: (2-(trimethylammonium)ethyl)MethaneThioSulfonate bromide [MTS-ET^+]
effect of charged MTS probe on activity [4]: channel inhibition
effect of charged MTS probe on activity [5]: channel inhibition
effect of charged MTS probe on activity [6]: channel inhibition
